Measurements from US12636294B2, “Compositions and methods for the treatment or prevention of traumatic brain injury” (priority 2019, dated 2026).

Columns and labels:
[1] = tested on: rat model of TBI induced by controlled cortical impact (CCI); assay: Morris Water Maze (MWM), spatial learning and memory after CCI injury; format: in vivo, Sprague-Dawley (SD) rats; details: observed; for E (normalised activity value used to calculate synergy), MWM proportion of rats that reached the platform / E (normalised activity value used to calculate synergy), MWM instances of rats reaching the platform: (X-placebo)/(sham-placebo); for E (normalised activity value used to calculate synergy), MWM instances of rats reaching the platform: 7-days post-head injury; for Instances of centre of rat corresponding to platform location normalised to the number of rats in group / Number of rats that reached the platform normalised to the total number of rats in each group: MWM 7-days post-head injury; for Instances of centre of rat corresponding to platform location normalised to the number of rats in group: CBD 20 mg/kg I.P LD 15-30 min post-injury + MD x 6, isoflurane 1.5% inhaled LD at 1 hr post-injury; for Number of rats that reached the platform normalised to the total number of rats in each group: CBD 20 mg/kg I.P LD + MD x 6, isoflurane 1.5% inhaled LD
Protocol: (§1) The effect of cannabidiol (CBD) combined with isoflurane therapy was assessed using a rat model of TBI induced by controlled cortical impact (CCI). Briefly, Sprague-Dawley (SD) rats were anaesthetised with 3% pentobarbital sodium before fixing the head in a stereotaxic frame. After performing a craniotomy, a contusion injury (CCI) was induced with an IMP-3000 TBI Impactor with a diameter of 5.0 mm, a depth of 2.5 mm, dwell time of 100 ms and velocity of 5 m/s. Control rats underwent the same surgical procedure, including craniotomy, without CCI.
(§2) The randomised groups are detailed in Table 2.
(§3) Behavioural outcomes following CCI were assessed using the Morris Water Maze (MWM), which assesses cognitive defects after CCI injury (see, e.g., Nunez, 2008, Journal of Visualized Experiments, 897) and the Rotarod test, which assesses changes in motor function (see, e.g., Shiotsuki et al., 2010, Journal of Neuroscience Methods, 189: 180-185).
(§4) The combinatorial neuroprotective effects of CBD and isoflurane were assessed using a rat controlled cortical impact model of TBI. Briefly, head injury is induced in the rats by first performing a craniotomy to remove a small disc of bone from the skull and then using a pneumatic rod to directly impact the exposed brain. Controlled Cortical Impact (CCI) parameters used in this study were 2.5 mm depth, 5 m/s velocity, 100 ms dwell time. Sham control animals underwent an identical surgical procedure, including craniotomy, but without the CCI injury.
(§5) Animals were treated with CBD (20 mg/kg) and isoflurane (1.5%) both alone and in combination (Table 2). A loading dose comprising CBD and isoflurane was administered sequentially, with CBD administered 15-30 min post injury and isoflurane administered 1-2 h after injury. Daily maintenance doses of CBD were administered for six consecutive days after administration of the loading dose.
(§6) To determine the neuroprotective effects associated with the combination of CBD and isoflurane, the MWM, a well-established assay for investigation of spatial learning and memory (Nunez, 2008, supra; D'Hooge et al., 2001, Brain Research Reviews, 36: 60-90), and the Rotarod, a device used to monitor motor coordination (Deacon, 2013, Journal of Visualized Expreiments, e2609-e2609; Shitosuki et al., 2010, supra), were used 7-days post-head injury. The predicted combinatorial effects of CBD and isoflurane were calculated using the Bliss independence principle using the equation: Epred A+B=(EA+EB)−(EAEB)
(§7) The activity of the combination for this equation was calculated as: (X−placebo)/(sham−placebo)
In the MWM a rat is trained to recognise where a platform is located in a water tank over a series of days. It is then released into the tank and monitored for the ability to locate the platform. A lack of ability to locate the platform is indicative of a spatial memory neurocognitive deficit.

[2] = after inhalation; general statement, no experiment described; cited from earlier work
[3] = tested on: rat model of TBI induced by controlled cortical impact (CCI); assay: Rotarod test, motor function after CCI injury; format: in vivo, Sprague-Dawley (SD) rats; details: observed; for E (normalised activity value used to calculate synergy), Rotarod latencies: (X-placebo)/(sham-placebo); for Latency: Rotarod 7-days post-head injury, CBD 20 mg/kg I.P LD + MD x 6, isoflurane 1.5% inhaled LD
Protocol: as §1, §2, §3, §4, §5, §6, §7

[4] = general statement, no experiment described; cited from earlier work

| Structure (SMILES) | E (normalised activity value used to calculate synergy), MWM proportion of rats that reached the platform [1] | E (normalised activity value used to calculate synergy), MWM instances of rats reaching the platform [1] | Instances of centre of rat corresponding to platform location normalised to the number of rats in group [1] | Number of rats that reached the platform normalised to the total number of rats in each group [1] | Time to achieve significant CNS concentrations [2] | E (normalised activity value used to calculate synergy), Rotarod latencies [3] | Latency [3] [s] | Lipid solubility [4] |
| --- | --- | --- | --- | --- | --- | --- | --- | --- |
| C=C(C)[C@@H]1CCC(C)=C[C@H]1c1c(O)cc(CCCCC)cc1O [CBD, cannabidiol] | 0.21 | −0.2 | 0.4 | 0.4 | within two minutes | −0.04 | 17.60 | – |
| FC(F)OC(Cl)C(F)(F)F (stereo not drawn) [isoflurane] | 0.50 | 0.67 | 0.83 | 0.5 | – | −0.09 | 17.33 | – |
| COC(F)(F)C(Cl)Cl [Methoxyflurane, methoxyflurane] | – | – | – | – | ≤ 2 min | – | – | highly lipid-soluble |
